Data published in patent publication US20120253032A1, “NOVEL CATIONIC LIPIDS WITH SHORT LIPID CHAINS FOR OLIGONUCLEOTIDE DELIVERY” (priority 2009, published 2012).

Assays:
[1] = system: mRNA transcript for the firefly (Photinus pyralis) luciferase gene; assay: In vivo efficacy in luciferase mouse model (bioluminescence, IVIS imager); settings: tail vein injection; for Average % Inhibition of Bioluminescence: LNPs prepared from the cationic lipid with Luc siRNA, 3 mg Kg^−1, imaged 48 hours post dose, relative to pre-dose luminescence
Procedure: LNPs utilizing compound 4, in the nominal compositions described immediately above, were evaluated for in vivo efficacy and induction of inflammatory cytokines in a luciferase mouse model. The siRNA targets the mRNA transcript for the firefly (Photinus pyralis) luciferase gene (Accession #M15077). […] The in vivo luciferase model employs a transgenic mouse in which the firefly luciferase coding sequence is present in all cells. ROSA26-LoxP-Stop-LoxP-Luc (LSL-Luc) transgenic mice licensed from the Dana Farber Cancer. Institute are induced to express the Luciferase gene by first removing the LSL sequence with a recombinant Ad-Cre virus (Vector Biolabs). Due to the organo-tropic nature of the virus, expression is limited to the liver when delivered via tail vein injection. Luciferase expression levels in liver are quantitated by measuring light output, using an IVIS imager (Xenogen) following administration of the luciferin substrate (Caliper Life Sciences). Pre-dose luminescence levels are measured prior to administration of the RDVs. Luciferin in PBS (15 mg/mL) is intraperitoneally (IP) injected in a volume of 150 uL. After a four minute incubation period mice are anesthetized with isoflurane and placed in the IVIS imager. The RDVs (containing siRNA) in PBS vehicle were tail vein injected n a volume of 0.2 mL. Final dose levels ranged from 0.3 to 3 mg/kg siRNA. PBS vehicle alone was dosed as a control. Three hours post dose, mice were bled retro-orbitally to obtain plasma for cytokine analysis. Mice were imaged 48 hours post dose using the method described above. Changes in luciferin light output directly correlate with luciferase mRNA levels and represent an indirect measure of luciferase siRNA activity. In vivo efficacy results are expressed as % inhibition of luminescence relative to pre-dose luminescence levels. Plasma cytokine levels were determined using the Searchlight multiplexed cytokine chemoluminescent array (Pierce/Thermo). Systemic administration of the luciferase siRNA RDVs decreased luciferase expression in a dose dependant manner.

IL-6 = assay: Mouse in vivo cytokine IL-6 induction (plasma, Searchlight multiplexed cytokine array); settings: RDVs containing luciferase siRNA; plasma 3 hours post dose; relative to PBS control
Procedure: (§1) FIG. 1: Mouse in vivo Cytokine IL-6 Induction 3 hour post injection. LNPs utilizing compound 4, in the nominal compositions described immediately above, were evaluated for in vivo efficacy and induction of inflammatory cytokines in a luciferase mouse model. The siRNA targets the mRNA transcript for the firefly (Photinus pyralis) luciferase gene (Accession #M15077). […] The in vivo luciferase model employs a transgenic mouse in which the firefly luciferase coding sequence is present in all cells. ROSA26-LoxP-Stop-LoxP-Luc (LSL-Luc) transgenic mice licensed from the Dana Farber Cancer. Institute are induced to express the Luciferase gene by first removing the LSL sequence with a recombinant Ad-Cre virus (Vector Biolabs). Due to the organo-tropic nature of the virus, expression is limited to the liver when delivered via tail vein injection. Luciferase expression levels in liver are quantitated by measuring light output, using an IVIS imager (Xenogen) following administration of the luciferin substrate (Caliper Life Sciences). Pre-dose luminescence levels are measured prior to administration of the RDVs. […] In vivo efficacy results are expressed as % inhibition of luminescence relative to pre-dose luminescence levels. Plasma cytokine levels were determined using the Searchlight multiplexed cytokine chemoluminescent array (Pierce/Thermo). […]

mKC = assay: Mouse in vivo cytokine mKC induction (plasma, Searchlight multiplexed cytokine array); settings: RDVs containing luciferase siRNA; plasma 3 hours post dose; relative to PBS control
Procedure: as §1, with “2:” for “1:”, “mKC” for “IL-6”

| SMILES | Average % Inhibition of Bioluminescence [1] [%] | In vivo efficacy (decrease of luciferase expression) ([1]; RDVs containing luciferase siRNA, 0.3 to 3 mg/kg siRNA, 48 hours post dose) | Mouse plasma level of cytokine IL-6 (IL-6) | Mouse plasma level of cytokine mKC (mKC) |
| --- | --- | --- | --- | --- |
| CCCCCCCCOC[C@H](CN(C)C)OCCCCO[C@H]1CC[C@@]2(C)C(=CC[C@H]3[C@@H]4CC[C@H]([C@H](C)CCCC(C)C)[C@@]4(C)CC[C@@H]32)C1 [Compound 4, (2S)-2-{4-[(3β)-cholest-5-en-3-yloxy]butoxy}-N,N-dimethyl-3-(octyloxy)propan-1-amine] | 87 | Greater efficacy | minimal cytokine induction | minimal cytokine induction |
| CCCCC/C=C\C/C=C\CCCCCCCCOCC(CN(C)C)OCCCCCCCCO[C@H]1CC[C@@]2(C)C(=CC[C@H]3[C@@H]4CC[C@H]([C@H](C)CCCC(C)C)[C@@]4(C)CC[C@@H]32)C1 (stereo partly shown) [Compound 12, S-Octyl CLinDMA, reference compound] | 76 |  | significantly increased | significantly increased |
